Measurements published in US20250325529A1, “INHIBITORS OF FATTY ACID BINDING PROTEINS (FABPs), METHODS OF USE AND METHODS OF MAKING” (Celloram, inc., priority 2024, published 2025).

Tests used:
[1] = tested on: Salmonella typhimurium tester strain TA98; assay: Ames test (Bacterial Reverse Mutation Test), TA98; assay type: cell-based
Procedure: (§1) PD152 (compound 2) was tested for genotoxic and cytotoxic side effects by Ames test. The Ames test is a Bacterial Reverse Mutation Test of mutagenicity that utilizes Salmonella typhimurium tester strains TA98, TA100, TA1535, TA1537 and Escherichia coli tester strain WP2 uvrA (pKM101), both in the presence and absence of S9.
(§2) The compound PD152 was tested at 10 concentrations (0.032-1000 μg/plate) in the presence of, or absence of, the hepatic enzyme S9.
(§3) The aniline FABP4/5 inhibitor compound, 2-((2-((2,4-dichloro-5-isopropoxyphenyl)amino)-2-oxoethyl)thio)-2-methylpropanoic acid (compound “B104” as disclosed in WO2023043803A1) also was tested for genotoxic and cytotoxic side effects by Ames test. […]

[2] = tested on: Salmonella typhimurium tester strain TA100; assay: Ames test (Bacterial Reverse Mutation Test), TA100; assay type: cell-based
Procedure: as §1, §2
(§4) The aniline FABP4/5 inhibitor compound, 2-((2-((2,4-dichloro-5-isopropoxyphenyl)amino)-2-oxoethyl)thio)-2-methylpropanoic acid (compound “B104” as disclosed in WO2023043803A1) also was tested for genotoxic and cytotoxic side effects by Ames test. B104 was tested using the Salmonella typhimurium tester stains TA98, TA100, TA1535, and TA1537, both in the presence and absence of the hepatic enzyme S9, at 5 concentrations (1.5-64 μg/plate).

[3] = tested on: Salmonella typhimurium tester strain TA1535; assay: Ames test (Bacterial Reverse Mutation Test), TA1535; assay type: cell-based
Procedure: as §1, §2, §4

[4] = tested on: Salmonella typhimurium tester strain TA1537; assay: Ames test (Bacterial Reverse Mutation Test), TA1537; assay type: cell-based
Procedure: as §1, §2, §3

[5] = tested on: Salmonella typhimurium tester strains TA98, TA100, TA1535, TA1537 and Escherichia coli tester strain WP2 uvrA (pKM101); assay: Ames test, overall conclusion for the tested strains; assay type: cell-based; conditions: presence and absence of S9
Procedure: as §1, §2, §4

[6] = Single dose IV and PO PK study in C57BL/6 mice; assay type: in vivo; conditions: mouse, plasma; male C57BL/6 mice, single oral dose 10 mg/kg
Procedure: C57BL/6 male mice or Han Wistar rats were used, n=3 for each administration route and compound. Single dose of each compound was administered orally (PO, 10 mg/Kg) or by intravenous administration (IV, 1 mg/Kg). Following intravenous and oral administration, blood samples (ca 0.2 mL) were collected and compound amount was measured by HLPC. For IV group, blood samples were collected at 0.083, 0.25, 0.5, 1, 2, 4, 6, 8, and 24 hours post-dose. For PO group, blood samples were collected at 0.25, 0.5, 1, 2, 4, 6, 8, and 24 hours post-dose.

[7] = target: PPARα (Homo sapiens (Human), UniProt Q07869); assay: Transcriptional activation assay in COS7 cells, PPARα; assay type: cell-based
Procedure: (§5) COS-7 were cultured in 6-well plates and co-transfected with either a luciferase reporter driven by 3 copies of a PPRE and expression vector for either PPARδ, PPARα or PPARγ together with a vector harboring cDNA for β-galactosidase, serving as a transfection control. To test whether FABP4 or FABP5 mediate activation of their cognate receptors PPARγ and PPARδ, respectively, cells were also co-transfected with a plasmid harboring sequence of either FABP4 or FABP5. 18 h post-transfection, cells were placed in a serum-free medium and treated with agonist/compound. 18 h. later, cells were lysed, luciferase activity was assayed (Promega, WI, USA) and corrected for transfection efficiency by the activity of β-galactosidase.
(§6) Transcriptional activation assays were carried out utilizing COS7 cells as described above.

[8] = target: FABP5 (Homo sapiens (Human), UniProt Q01469); assay: Fluorescence (ANS) competition binding assay, FABP5; conditions: ANS displacement
Procedure: (§7) This example illustrates a two-step fluorescence binding assay study used to determine the binding affinity of the various inhibitor compounds disclosed herein with the various FABPs: FABP3, FABP4, FABP5 and FABP7. Further secondary screening studies were carried out for compounds with high binding affinities toward the FABPs and based on their ability to activate the nuclear receptors PPARα, PPARγ, or PPARδ.
(§8) Binding assays for FABP3, FABP4, FABP5 and FABP7 were carried out by fluorescence titrations. His-tagged FABPs were bacterially expressed in E. coli, purified using Ni Sepharose beads, and the equilibrium dissociation constants (Kd) that characterize their interactions with different inhibitor compounds were measured by fluorescence competition assays. The method entails two steps as described in e.g., Lin, Q. et al., “Ligand selectivity of the peroxisome proliferator-activated receptor alpha,” Biochemistry 38, 185-190, doi:10.1021/bi9816094 [pii](1999). In the first step, Kd for the association of the protein with the fluorescent fatty acid probe ANS was measured. Protein (2 μM) was titrated with ANS from a concentrated solution in DMSO. Ligand binding was monitored by following the increase in the fluorescence of the ligand upon binding to the protein, and Kd for the association of ANS with the each FABP was computed from titration curves as described in e.g., Norris, A. W. & Li, E., “Fluorometric titration of the CRABPs,” Methods Mol Biol 89, 123-139 (1998)). In the second step, Kds for binding of non-fluorescent ligands were measured by monitoring their ability to displace ANS in the binding pocket of the protein. Each FABP was precomplexed with ANS at 1:1 molar ratio and titrated with the different compounds whose binding was reflected by a decrease in probe fluorescence. Kds were extracted from the EC50 of the competition curve and the measured Kd for ANS.

[9] = target: FABP4 (Homo sapiens (Human), UniProt P15090); assay: Fluorescence (ANS) competition binding assay, FABP4; conditions: ANS displacement
Procedure: as §7, §8

[10] = target: FABP3 (Homo sapiens (Human), UniProt P05413); assay: Fluorescence (ANS) competition binding assay, FABP3; conditions: ANS displacement
Procedure: as §7, §8

[11] = target: FABP7 (Homo sapiens (Human), UniProt O15540); assay: Fluorescence (ANS) competition binding assay, FABP7; conditions: ANS displacement
Procedure: as §7, §8

[12] = target: PPARγ (Homo sapiens (Human), UniProt P37231); assay: Transcriptional activation assay in COS7 cells, PPARγ; assay type: cell-based; conditions: PPRE luciferase reporter, PD151 and PD152 at 10 μM
Procedure: as §5, §6

[13] = target: PPARδ (Homo sapiens (Human), UniProt Q03181); assay: Transcriptional activation assay in COS7 cells, PPARδ; assay type: cell-based; conditions: PPRE luciferase reporter, PD151 and PD152 at 10 μM
Procedure: as §5, §6

[14] = TA98, absence of S9, 1.5 μg/well
[15] = TA98, absence of S9, 10 μg/well
[16] = TA98, absence of S9, 25 μg/well
[17] = TA98, absence of S9, 64 μg/well
[18] = TA98, presence of S9, 1.5 μg/well
[19] = TA98, presence of S9, 4 μg/well
[20] = TA98, presence of S9, 10 μg/well
[21] = TA98, presence of S9, 25 μg/well
[22] = TA98, presence of S9, 64 μg/well
[23] = TA100, absence of S9, 1.5 μg/well
[24] = TA100, absence of S9, 4 μg/well
[25] = TA100, absence of S9, 10 μg/well
[26] = TA100, absence of S9, 25 μg/well
[27] = TA100, absence of S9, 64 μg/well
[28] = TA100, presence of S9, 1.5 μg/well
[29] = TA100, presence of S9, 4 μg/well
[30] = TA100, presence of S9, 10 μg/well
[31] = TA100, presence of S9, 25 μg/well
[32] = TA100, presence of S9, 64 μg/well
[33] = TA1535, absence of S9, 1.5 μg/well
[34] = TA1535, absence of S9, 4 μg/well
[35] = TA1535, absence of S9, 10 μg/well
[36] = TA1535, absence of S9, 25 μg/well
[37] = TA1535, absence of S9, 64 μg/well
[38] = TA1535, presence of S9, 1.5 μg/well
[39] = TA1535, presence of S9, 4 μg/well
[40] = TA1535, presence of S9, 10 μg/well
[41] = TA1535, presence of S9, 25 μg/well
[42] = TA1535, presence of S9, 64 μg/well
[43] = TA1537, absence of S9, 1.5 μg/well
[44] = TA1537, absence of S9, 4 μg/well
[45] = TA1537, absence of S9, 10 μg/well
[46] = TA1537, absence of S9, 25 μg/well
[47] = TA1537, absence of S9, 64 μg/well
[48] = TA1537, presence of S9, 1.5 μg/well
[49] = TA1537, presence of S9, 4 μg/well
[50] = TA1537, presence of S9, 10 μg/well
[51] = TA1537, presence of S9, 25 μg/well
[52] = TA1537, presence of S9, 64 μg/well

Chain of FABP3 (P05413 whole entry, species assumed): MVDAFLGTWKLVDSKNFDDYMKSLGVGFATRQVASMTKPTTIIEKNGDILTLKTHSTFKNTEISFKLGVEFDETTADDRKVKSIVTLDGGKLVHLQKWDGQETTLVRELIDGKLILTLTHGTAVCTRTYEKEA
Chain of FABP7 (O15540 whole entry, species assumed): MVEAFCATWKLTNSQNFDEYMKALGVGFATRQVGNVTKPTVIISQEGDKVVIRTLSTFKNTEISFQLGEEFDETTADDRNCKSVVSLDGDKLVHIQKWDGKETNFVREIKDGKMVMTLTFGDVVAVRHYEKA
Chain of FABP4 (P15090 whole entry, species assumed): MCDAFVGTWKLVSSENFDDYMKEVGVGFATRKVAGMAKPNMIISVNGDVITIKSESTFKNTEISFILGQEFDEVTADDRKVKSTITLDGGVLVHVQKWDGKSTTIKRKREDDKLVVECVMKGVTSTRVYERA
Chain of FABP5 (Q01469 whole entry, species assumed): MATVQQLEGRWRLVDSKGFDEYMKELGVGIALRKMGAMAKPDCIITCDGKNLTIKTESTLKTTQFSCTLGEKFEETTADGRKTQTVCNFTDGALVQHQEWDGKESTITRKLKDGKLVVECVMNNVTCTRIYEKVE
Chain of PPARα (Q07869 whole entry, species assumed): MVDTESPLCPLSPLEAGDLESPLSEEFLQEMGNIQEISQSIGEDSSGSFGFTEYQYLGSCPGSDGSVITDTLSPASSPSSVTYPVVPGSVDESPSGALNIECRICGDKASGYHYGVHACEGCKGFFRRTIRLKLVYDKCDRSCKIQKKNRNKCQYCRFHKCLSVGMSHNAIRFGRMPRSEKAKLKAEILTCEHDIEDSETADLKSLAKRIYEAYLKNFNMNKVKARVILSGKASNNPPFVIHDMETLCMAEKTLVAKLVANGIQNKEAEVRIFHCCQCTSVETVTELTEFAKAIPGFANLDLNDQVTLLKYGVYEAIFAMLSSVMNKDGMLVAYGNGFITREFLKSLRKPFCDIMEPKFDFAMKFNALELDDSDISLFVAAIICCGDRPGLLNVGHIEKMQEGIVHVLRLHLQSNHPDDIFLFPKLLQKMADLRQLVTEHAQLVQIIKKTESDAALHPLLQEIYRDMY
Chain of PPARγ (P37231 whole entry, species assumed): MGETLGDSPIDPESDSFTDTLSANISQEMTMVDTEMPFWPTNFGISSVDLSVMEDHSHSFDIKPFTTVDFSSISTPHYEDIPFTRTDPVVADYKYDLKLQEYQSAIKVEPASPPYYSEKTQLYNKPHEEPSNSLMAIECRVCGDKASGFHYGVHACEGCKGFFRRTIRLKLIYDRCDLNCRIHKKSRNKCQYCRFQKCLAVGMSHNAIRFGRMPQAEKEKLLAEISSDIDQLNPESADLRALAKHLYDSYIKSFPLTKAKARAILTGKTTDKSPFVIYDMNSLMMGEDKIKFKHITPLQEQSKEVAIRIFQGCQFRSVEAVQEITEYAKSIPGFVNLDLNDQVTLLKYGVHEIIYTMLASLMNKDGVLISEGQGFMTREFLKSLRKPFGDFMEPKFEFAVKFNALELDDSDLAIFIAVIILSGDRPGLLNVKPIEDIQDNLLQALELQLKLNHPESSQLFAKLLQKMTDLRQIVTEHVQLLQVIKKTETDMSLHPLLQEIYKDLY
Chain of PPARδ (Q03181 whole entry, species assumed): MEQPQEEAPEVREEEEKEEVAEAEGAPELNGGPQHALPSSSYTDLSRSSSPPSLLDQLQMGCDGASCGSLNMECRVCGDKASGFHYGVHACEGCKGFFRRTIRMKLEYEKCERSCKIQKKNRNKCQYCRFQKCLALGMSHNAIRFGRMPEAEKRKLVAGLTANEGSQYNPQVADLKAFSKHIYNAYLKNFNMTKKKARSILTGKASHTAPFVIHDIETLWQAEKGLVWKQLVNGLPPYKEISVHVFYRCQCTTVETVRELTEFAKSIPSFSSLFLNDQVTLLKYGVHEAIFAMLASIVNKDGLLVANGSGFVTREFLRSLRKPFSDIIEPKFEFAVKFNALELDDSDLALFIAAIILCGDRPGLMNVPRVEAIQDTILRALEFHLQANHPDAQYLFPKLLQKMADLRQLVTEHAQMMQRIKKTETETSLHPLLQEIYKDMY

CC(C)Oc1cc(NC(=O)CSC(C)(C)C(=O)O)c(Cl)cc1Cl [Compound B104, 2-((2-((2,4-dichloro-5-isopropoxyphenyl)amino)-2-oxoethyl)thio)-2-methylpropanoic acid, reference compound]
Fold increase [1, 14]: 1.26 | Mean number of revertants [1, 14]: 16 | Fold increase ([1]; TA98, absence of S9, 4 μg/well): 0.84 | Mean number of revertants ([1]; TA98, absence of S9, 4 μg/well): 10.67 | Fold increase [1, 15]: 0.97 | Mean number of revertants [1, 15]: 12.33 | Fold increase [1, 16]: 0 | Mean number of revertants [1, 16]: 0.33 | Fold increase [1, 17]: 0 | Mean number of revertants [1, 17]: 0.66 | Fold increase [1, 18]: 1.2 | Mean number of revertants [1, 18]: 20.67 | Fold increase [1, 19]: 2.3 | Mean number of revertants [1, 19]: 39 | Fold increase [1, 20]: 2.88 | Mean number of revertants [1, 20]: 49 | Fold increase [1, 21]: 2.7 | Mean number of revertants [1, 21]: 47.67 | Fold increase [1, 22]: 1.5 | Mean number of revertants [1, 22]: 26 | Fold increase [2, 23]: 0.8 | Mean number of revertants [2, 23]: 52 | Fold increase [2, 24]: 1.05 | Mean number of revertants [2, 24]: 68 | Fold increase [2, 25]: 0.86 | Mean number of revertants [2, 25]: 56 | Fold increase [2, 26]: 0 | Mean number of revertants [2, 26]: 0 | Fold increase [2, 27]: 0 | Mean number of revertants [2, 27]: 0.67 | Fold increase [2, 28]: 3 | Mean number of revertants [2, 28]: 387 | Fold increase [2, 29]: 5.18 | Mean number of revertants [2, 29]: 658 | Fold increase [2, 30]: 6.68 | Mean number of revertants [2, 30]: 849 | Fold increase [2, 31]: 6.55 | Mean number of revertants [2, 31]: 833 | Fold increase [2, 32]: 4.44 | Mean number of revertants [2, 32]: 564.5 | Fold increase [3, 33]: 1.20 | Mean number of revertants [3, 33]: 4 | Fold increase [3, 34]: 2.20 | Mean number of revertants [3, 34]: 7.33 | Fold increase [3, 35]: 1.40 | Mean number of revertants [3, 35]: 4.67 | Fold increase [3, 36]: 0.20 | Mean number of revertants [3, 36]: 0.67 | Fold increase [3, 37]: 0 | Mean number of revertants [3, 37]: 0 | Fold increase [3, 38]: 0.89 | Mean number of revertants [3, 38]: 5.67 | Fold increase [3, 39]: 1 | Mean number of revertants [3, 39]: 6.33 | Fold increase [3, 40]: 1.06 | Mean number of revertants [3, 40]: 6.67 | Fold increase [3, 41]: 1.68 | Mean number of revertants [3, 41]: 10.67 | Fold increase [3, 42]: 1 | Mean number of revertants [3, 42]: 6.33 | Fold increase [4, 43]: 0.43 | Mean number of revertants [4, 43]: 2.0 | Fold increase [4, 44]: 0.32 | Mean number of revertants [4, 44]: 1.5 | Fold increase [4, 45]: 0.21 | Mean number of revertants [4, 45]: 1.0 | Fold increase [4, 46]: 0 | Mean number of revertants [4, 46]: 0 | Fold increase [4, 47]: 0 | Mean number of revertants [4, 47]: 0 | Fold increase [4, 48]: 1.71 | Mean number of revertants [4, 48]: 4.0 | Fold increase [4, 49]: 2.36 | Mean number of revertants [4, 49]: 5.5 | Fold increase [4, 50]: 1.29 | Mean number of revertants [4, 50]: 3.0 | Fold increase [4, 51]: 1.07 | Mean number of revertants [4, 51]: 2.5 | Fold increase [4, 52]: 2.14 | Mean number of revertants [4, 52]: 5.0 | Cytotoxicity to the tested strains [5]: some level of cytotoxicity | Mutagenicity in the Ames test [5]: positive mutagenic responses

CC(C)Oc1cc(NC(=O)CSCC(=O)O)c(Cl)cc1Cl [Compound B4, 2-((2-((2,4-dichloro-5-isopropoxyphenyl)amino)-2-oxoethyl)thio)acetic acid, reference compound]
bioavailability [6]: 47%

Cc1cccc(Nc2cc(Cl)nc(SCC(=O)O)n2)c1C [Wy-14643, reference compound]
Activation of transcription by PPARα ([7]; known agonist, 5 μM): induced activation of their respective receptors

CC(C)Oc1nc(NC(=O)CSC(C)(C)C(=O)O)c(Cl)cc1Cl [PD153, 2-((2-((3,5-dichloro-6-isopropoxypyridin-2-yl)amino)-2-oxoethyl)thio)-2-methylpropanoic acid]
Kd [8]: 80 nM | Kd [9]: 96 nM | Kd [10]: 98 nM | Kd [11]: 344 nM

CC(C)Oc1nc(NC(=O)COCC(=O)O)c(Cl)cc1Cl [PD155, 2-(2-((3,5-dichloro-6-isopropoxypyridin-2-yl)amino)-2-oxoethoxy)acetic acid]
Kd [8]: 59 nM | Kd [9]: 79 nM | Kd [10]: 117 nM | Kd [11]: 108 nM

CC(C)Oc1ccc(Cl)c(NC(=O)CSCC(=O)O)n1 [PD152.2, 2-((2-((3-chloro-6-isopropoxypyridin-2-yl)amino)-2-oxoethyl)thio)acetic acid]
Kd [8]: 141 nM | Kd [9]: 72 nM | Kd [10]: 125 nM | Kd [11]: 1000 nM | Activation of transcription by PPARα ([7]; PPRE luciferase reporter, PD151 and PD152 at 10 μM): None of these tested compounds activated | Activation of transcription by PPARγ [12]: None of these tested compounds activated | Activation of transcription by PPARδ [13]: None of these tested compounds activated
